Data from US6093732A, “4-hydroxyquinoline-3-carboxamides and hydrazides as antiviral agents” (Pharmacia & Upjohn Company, priority 1998, dated 2000).

molecular target: T1, HCMV polymerase (Human cytomegalovirus, UniProt P08546); experiment: HCMV polymerase scintillation proximity assay (SPA), modified version; assay type: biochemical; settings: CMV polymerase; Table 1; modified assay with 4.5 mM DTT, compounds in 100% DMSO; read-out: Antiviral Selective Polymerase IC50 Values, CMV
T1 construct: made in house; host or cells: recombinant baculovirus-infected SF-9 cells
Protocol: The HCMV polymerase assay is performed using a scintillation proximity assay (SPA) as described in several references, such as N. D. Cook, et al., Pharmaceutical Manufacturing International, pages 49-53 (1992); K. Takeuchi, Laboratory Practice, September issue (1992); U.S. Pat. No. 4,568,649 (1986); which are incorporated by reference herein. Reactions are performed in 96-well plates. The assay is conducted in 100 μl volume with 5.4 mM HEPES (pH 7.5), 11.7 mM KCl, 4.5 mM MgCl2, 0.36 mg/ml BSA, and 90 nM ^3 H-dTTP. Assays are run with and without CHAPS, (3-[(3-Cholamidopropyl)-dimethylammonio]-1-propane-sulfonate) at a final concentration of 2 mM. HCMV polymerase is diluted in enzyme dilution buffer containing 50% glycerol, 250 mM NaCl, 10 mM HEPES (pH 7.5), 100 μg/ml BSA, and 0.01% sodium azide. The HCMV polymerase, which is expressed in recombinant baculovirus-infected SF-9 cells and purified according to literature procedures, is added at 10% (or 10 μl) of the final reaction volume, i.e., 100 μl. Compounds are diluted in 50% DMSO and 10 μl are added to each well. Control wells contain an equivalent concentration of DMSO. Unless noted otherwise, reactions are initiated via the addition of 6 nM biotinylated poly(dA)-oligo(dT) template/primer to reaction mixtures containing the enzyme, substrate, and compounds of interest. Plates are incubated in a 25° C. or 37° C. H2 O bath and terminated via the addition of 40 μl/reaction of 0.5 M EDTA (pH 8) per well. Reactions are terminated within the time-frame during which substrate incorporation is linear and varied depending upon the enzyme and conditions used, i.e., 30 min. for HCMV polymerase. Ten μl of streptavidin-SPA beads (20 mg/ml in PBS/10% glycerol) are added following termination of the reaction. Plates are incubated 10 min. at 37° C., then equilibrated to room temperature, and counted on a Packard Topcount. Linear regressions are performed and IC50 's are calculated using computer software.
A modified version of the above HCMV polymerase assay is performed as described above, but with the following changes: Compounds are diluted in 100% DMSO until final dilution into assay buffer. In the previous assay, compounds are diluted in 50% DMSO. 4.5 mM dithiotherotol (DTT) is added to the polymerase buffer. […] Other viral polymerase assays are performed using procedures similar to those described above.

T1 sequence (P08546 whole entry): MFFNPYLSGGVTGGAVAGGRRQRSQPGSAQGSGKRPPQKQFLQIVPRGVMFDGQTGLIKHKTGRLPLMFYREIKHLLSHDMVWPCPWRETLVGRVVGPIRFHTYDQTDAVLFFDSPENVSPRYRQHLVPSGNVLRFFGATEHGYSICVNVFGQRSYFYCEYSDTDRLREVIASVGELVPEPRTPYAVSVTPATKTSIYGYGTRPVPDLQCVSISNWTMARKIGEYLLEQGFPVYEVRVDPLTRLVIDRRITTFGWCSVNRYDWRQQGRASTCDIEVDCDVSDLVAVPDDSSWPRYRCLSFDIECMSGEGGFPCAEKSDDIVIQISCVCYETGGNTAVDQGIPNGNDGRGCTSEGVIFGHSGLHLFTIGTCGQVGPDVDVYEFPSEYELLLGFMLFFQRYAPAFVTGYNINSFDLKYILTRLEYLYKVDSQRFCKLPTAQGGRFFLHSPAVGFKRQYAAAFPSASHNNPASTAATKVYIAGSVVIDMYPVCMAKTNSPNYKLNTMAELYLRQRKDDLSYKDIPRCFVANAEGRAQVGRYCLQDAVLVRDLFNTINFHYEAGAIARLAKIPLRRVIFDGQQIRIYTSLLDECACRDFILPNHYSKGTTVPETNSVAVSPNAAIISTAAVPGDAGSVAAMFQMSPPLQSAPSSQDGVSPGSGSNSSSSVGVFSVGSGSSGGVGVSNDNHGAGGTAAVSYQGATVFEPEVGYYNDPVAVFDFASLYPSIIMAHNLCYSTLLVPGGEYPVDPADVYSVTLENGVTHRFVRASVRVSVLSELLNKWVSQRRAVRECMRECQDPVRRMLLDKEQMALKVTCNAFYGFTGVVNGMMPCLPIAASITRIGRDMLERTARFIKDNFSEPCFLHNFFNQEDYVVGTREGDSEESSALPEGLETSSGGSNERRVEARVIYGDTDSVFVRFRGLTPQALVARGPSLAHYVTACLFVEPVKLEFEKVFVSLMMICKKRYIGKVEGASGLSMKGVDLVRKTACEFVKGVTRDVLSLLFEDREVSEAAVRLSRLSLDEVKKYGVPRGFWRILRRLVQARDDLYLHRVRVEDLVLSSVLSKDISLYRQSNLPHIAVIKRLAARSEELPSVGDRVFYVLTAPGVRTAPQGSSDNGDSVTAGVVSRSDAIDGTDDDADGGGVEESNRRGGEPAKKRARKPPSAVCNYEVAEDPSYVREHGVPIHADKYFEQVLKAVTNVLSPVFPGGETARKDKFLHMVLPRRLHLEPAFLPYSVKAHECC

SMILES	IC50
O=C(NCc1ccc(Cl)cc1)c1cnc2c(Cl)ccc(C(F)(F)F)c2c1O [Example 59, 8-Chloro-N-((4-chlorophenyl)methyl)-4-hydroxy-5-trifluoro-methyl-3-quinolinecarboxamide]	33.1 µM
COc1cc(OC)c2ncc(C(=O)NCc3ccc(Cl)cc3)c(O)c2c1 [Example 60, N-((4-Chlorophenyl)methyl)-4-hydroxy-6,8-dimethoxy-3-quinolinecarboxamide]	4 µM
COc1cc2ncc(C(=O)NCc3ccc(Cl)cc3)c(O)c2cc1OC [Example 61, N-((4-Chlorophenyl)methyl)-4-hydroxy-6,7-dimethoxy-3-quinolinecarboxamide]	3.1 µM
Cc1cccc2ncc(C(=O)NCc3ccc(Cl)cc3)c(O)c12 [Example 62, N-((4-Chlorophenyl)methyl)-4-hydroxy-5-methyl-3-quinoline-carboxamide]	4.6 µM
CC(C)(C)c1ccc2ncc(C(=O)NCc3ccc(Cl)cc3)c(O)c2c1 [Example 63, N-[(4-Chlorophenyl)methyl]-6-(1,1-dimethylethyl)-4-hydroxy-3-quinolinecarboxamide]	7 µM
O=C(NCc1ccc(Cl)cc1)c1cnc2cc3c(cc2c1O)CCC3 [Example 64, N-[(4-Chlorophenyl)methyl]-7,8-dihydro-4-hydroxy-6H-cyclopent a[g]quinoline-3-carboxamide]	8.5 µM
CSc1cccc2c(=O)c(C(=O)NCc3ccc(Cl)cc3)c[nH]c12 [Example 65, N-[(4-Chlorophenyl)methyl]-1,4-dihydro-8-(methylthio)-4-oxo-3-quinolinecarboxamide]	3.3 µM
O=C(NCc1ccc(Cl)cc1)c1cnc2ccc3ncsc3c2c1O [Example 66, N-[(4-Chlorophenyl)methyl]-9-hydroxythiazolo[5,4-f]quinoline-8-carboxamide]	0.29 µM
O=C(NCc1ccc(Cl)cc1)c1cnc2cc(C(F)(F)F)c(SCc3ccccc3)cc2c1O [Example 72, N-[(4-Chlorophenyl)methyl]-4-hydroxy-6-[(phenylmethyl)thio]-7-(trifluoromethyl)-3-quinolinecarboxamide]	9.4 µM
O=C(NCc1ccc(Cl)cc1)c1cnc2cccc(C(F)(F)F)c2c1O [Example 76, N-((4-Chlorophenyl)methyl)-4-hydroxy-5-trifluoromethyl-3-quinolinecarboxamide]	5.2 µM
Cc1ccccc1-c1cc(F)c2ncc(C(=O)NCc3ccc(Cl)cc3)c(O)c2c1 [Example 77, N-((4-Chlorophenyl)methyl)-8-fluoro-4-hydroxy-6-(2-methyl-phenyl)-3-quinolinecarboxamide]	4 µM
O=C(NCc1ccc(Cl)cc1)c1cnc2c(OC3CCOCC3)c(F)c(F)cc2c1O [Example 78, N-((4-Chlorophenyl)methyl)-6,7-difluoro-4-hydroxy-8-(tetrahydro-2H-pyran-4-oxy)-3-quinolinecarboxamide]	0.71 µM
COc1c(F)c(F)cc2c(O)c(C(=O)NCc3ccc(Cl)cc3)cnc12 [Example 79, N-((4-Chlorophenyl)methyl)-6,7-difluoro-4-hydroxy-8-methoxy-3-quinolinecarboxamide]	0.96 µM
COc1c(F)cc2c(O)c(C(=O)NCc3ccc(Cl)cc3)cnc2c1OC [Example 80, N-((4-Chlorophenyl)methyl)-7,8-dimethoxy-6-fluoro-4-hydroxy-3-quinolinecarboxamide]	2.4 µM
O=C(NCc1ccc(Cl)cc1)c1cnc2c(F)c(Oc3ccc(CO)cc3)c(F)cc2c1O [Example 81, N-((4-Chlorophenyl)methyl)-6,8-difluoro-4-hydroxy-7-(4-(hydroxymethyl)phenoxy)-3-quinolinecarboxamide]	7.8 µM
COc1c(F)cc2c(O)c(C(=O)NCc3ccc(Cl)cc3)cnc2c1F [Example 82, N-((4-Chlorophenyl)methyl)-6,8-difluoro-4-hydroxy-7-methoxy-3-quinolinecarboxamide]	2.5 µM
COCCOc1c(F)cc2c(O)c(C(=O)NCc3ccc(Cl)cc3)cnc2c1F [Example 83, N-((4-Chlorophenyl)methyl)-6,8-difluoro-4-hydroxy-7-(2-(methoxy)ethoxy)-3-quinolinecarboxamide]	4.3 µM

SMILES	IC50
COCCOc1c(F)c(F)cc2c(O)c(C(=O)NCc3ccc(Cl)cc3)cnc12 [Example 84, N-((4-Chlorophenyl)methyl)-6,7-difluoro-4-hydroxy-8-(2-(methoxy)ethoxy)-3-quinolinecarboxamide]	0.79 µM
COCCOc1c(F)cc2c(O)c(C(=O)NCc3ccc(Cl)cc3)cnc2c1OCCOC [Example 85, N-((4-Chlorophenyl)methyl)-6-fluoro-7,8-di(2-(methoxy)ethoxy)-4-hydroxy-3-quinolinecarboxamide]	18.1 µM
CC(C)Oc1c(F)cc2c(O)c(C(=O)NCc3ccc(Cl)cc3)cnc2c1F [Example 86, N-((4-Chlorophenyl)methyl)-6,8-difluoro-4-hydroxy-7-(1-methylethoxy)-3-quinolinecarboxamide]	10.7 µM
O=C(NCc1ccc(Cl)cc1)c1cnc2c(F)cc(-c3nccs3)cc2c1O [Example 87, N-(4-Chlorobenzyl)-8-fluoro-4-hydroxy-6-(1,3-thiazol-2-yl)-3-quinolinecarboxamide]	7.9 µM
COCCNc1c(F)cc2c(O)c(C(=O)NCc3ccc(Cl)cc3)cnc2c1F [Example 88, N-(4-Chlorobenzyl)-6,8-difluoro-4-hydroxy-7-[(2-methoxyethyl)amino]-3-quinolinecarboxamide]	30.3 µM
N#CCCCC#Cc1cc(F)c2ncc(C(=O)NCc3ccc(Cl)cc3)c(O)c2c1 [Example 89, N-(4-Chlorobenzyl)-6-(5-cyano-1-pentynyl)-8-fluoro-4-hydroxy-3-quinolinecarboxamide]	7.2 µM
O=C(NCc1ccc(Cl)cc1)c1cnc2c(F)cc(-c3ccccn3)cc2c1O [Example 90, N-(4-Chlorobenzyl)-8-fluoro-4-hydroxy-6-(2-pyridinyl)-3-quinolinecarboxamide]	2.9 µM
O=C(NNc1ccc(Cl)cc1)c1cnc2ccc(I)cc2c1O [Example 91, 4-Hydroxy-6-iodo-3-quinolinecarboxylic acid 2-(4-chlorophenyl)hydrazide]	3.8 µM
O=C(NCc1ccc(Cl)cc1)c1cnc2c(F)cc(C#Cc3ccccn3)cc2c1O [Example 92, N-(4-Chlorobenzyl)-8-fluoro-4-hydroxy-6-[2-(2-pyridinyl)ethynyl]-3-quinolinecarboxamide]	20.6 µM
O=C(NCc1ccc(Cl)cc1)c1cnc2c(F)cc(C#CCCO)cc2c1O [Example 94, N-(4-Chlorobenzyl)-8-fluoro-4-hydroxy-6-(4-hydroxy-1-butynyl)-3-quinolinecarboxamide]	5.3 µM
COCC#Cc1cc(F)c2ncc(C(=O)NCc3ccc(Cl)cc3)c(O)c2c1 [Example 95, N-(4-Chlorobenzyl)-8-fluoro-4-hydroxy-6-(3-methoxy-1-propynyl)-3-quinolinecarboxamide]	1.9 µM
CC(O)C#Cc1cc(F)c2ncc(C(=O)NCc3ccc(Cl)cc3)c(O)c2c1 (stereo not shown) [Example 96, N-(4-Chlorobenzyl)-8-fluoro-4-hydroxy-6-(3-hydroxy-1-butynyl)-3-quinolinecarboxamide]	4.5 µM
O=C(NCc1ccc(Cl)cc1)c1cnc2c(F)cc(-c3cc(Br)cs3)cc2c1O [Example 97, 6-(4-Bromo-2-thienyl)-N-(4-chlorobenzyl)-8-fluoro-4-hydroxy-3-quinolinecarboxamide]	18.6 µM
NNC(=S)c1cc(F)c2ncc(C(=O)NCc3ccc(Cl)cc3)c(O)c2c1 [Example 98, N-(4-Chlorobenzyl)-8-fluoro-6-(hydrazinocarbothioyl)-4-hydroxy-3-quinolinecarboxamide]	1.3 µM
Cc1nnc(-c2cc(F)c3ncc(C(=O)NCc4ccc(Cl)cc4)c(O)c3c2)s1 [Example 100, N-(4-Chlorobenzyl)-8-fluoro-4-hydroxy-6-(5-methyl-1,3,4-thiadiazol-2-yl)-3-quinolinecarboxamide]	6.7 µM
O=C(NCc1ccc(Cl)cc1)c1cnc2cc(C#CCO)ccc2c1O [Example 101, N-(4-Chlorobenzyl)-4-hydroxy-7-(3-hydroxy-1-propynyl)-3-quinolinecarboxamide]	25.8 µM
NC(=S)c1ccc2c(O)c(C(=O)NCc3ccc(Cl)cc3)cnc2c1 [Example 102, 7-(Aminocarbothioyl)-N-(4-chlorobenzyl)-4-hydroxy-3-quinoline-carboxamide]	4.6 µM
